Consider one molecule from patent publication US20210361706A1 (priority 2018, published 2021).

Experiment [1] deals with EO771 tumor. The class given is in vivo, C57BL/6JNarl female mice. An excerpt: Next, the effect of CTX monotherapy and CTX/NK cell combined therapy were examined in an EO771 tumor resection mouse model, which mimics patients whose tumor was surgically removed.
Tumor and draining lymph node were resected on day-21 post tumor inoculation, and CTX alone or in combination with NK cells were started two days after the resection. […] FIG. 4. […] FIG. 4. […] FIG. 4. […]

Experiment [2] relates to EO771 cells. The experiment can be described thus: EO771 re-challenge of tumor-bearing mice that survived the primary tumor after treatment.
Protocol: The orthotopic syngeneic TMBC model was done by injection of EO771 cells into the 4th mammary fat pad of C57BL/6JNarl female mice. For the tumor-bearing model, each mouse was inoculated with 0.5×10^6 cells and received the first intra-peritoneal injection of CTX after 21 days. The second CTX injection was given 6 days later. Sorted CD11c^+B220^+ NK cells were transferred intravenously around 24 hours after the second CTX treatment, and followed with another NK cell transfer 3-4 days later. For the tumor-resect model, each mouse was inoculated with 0.3×10^6 EO771 cells, and the tumor and draining lymph node were resected 21 days later. CTX/NK treatment started at 48 hours after resection as described in the tumor-bearing model. […] The mice were monitored for survival, body weight, and tumor volume.
Kaplan-Meier survival analyses were performed using GraphPad Prism 7, and the Log-rank test was used to determine significance. Cox proportional hazard model was used to analyze hazard ratio and interaction [24]. P-value≤0.05 was considered statistically significant (*p≤0.05, **p≤0.01, ***p≤0.001, ****p≤0.0001).
To determine whether CTX/NK cell combined therapy would prevent or reduce the risk of tumor recurrence, mice who survived the primary tumor after the treatment were re-challenged with the same tumor cells to mimic cancer recurrence.
The cure rate was estimated by multiplying the primary and re-challenge survival rates.
The subject of experiment [3] is EO771 tumor. The class given is in vivo, C57BL/6JNarl female mice. Particulars: for survival rate: twice CTX, FIG. 1B. The protocol: The syngeneic orthotopic EO771 breast cancer mouse model (see Johnstone et al., Disease models & mechanisms, 8(3):237-251 (2015)) was used to evaluate the in vivo treatment efficacy.
C57BL/6JNarl female mice were purchased from National Laboratory Animal Center, Taiwan and housed under specific pathogenic-free condition in the animal facility of Institute of Molecular Biology, Academia Sinica, Taiwan. Mice were used between 8-to-12-week-old.
EO771 cell line (CH3 BioSystems) were cultured in complete medium (RPMI 1640 (Gibco) supplemented with 20 mM pH7.2 HEPES (Sigma-Aldrich), 10% fetal bovine serum (FBS; HyClone) and 1% Penicillin and Streptomycin (PS; Gibco)). B16-F10 melanoma was provided by Dr. Roffler, Steve R. (Institute of Biomedical Sciences, Academia Sinica, Taiwan) and cultured in complete medium (DMEM (Gibco) supplemented with 10% FBS (HyClone) and 1% PS (Gibco)). Tumor cells were cultured at 37° C. incubator with 5% CO2.
Bone marrow (BM) cells were obtained from Tibias and femurs. Red blood cells were lysed by ACK lysis buffer (0.15 M NH4Cl, 10 mM NaHCO3, 1 mM disodium EDTA (pH 7.4)). The BM cells were cultured in 10% FBS RPMI medium containing rmIL-15 for 7 days, and IL-12 was added 16 hours before harvesting. The harvested BM cells were stained with antibodies specific for CD19, H57, NK1.1, CD11 c and B220, and sorted for CD11c^+B220^+ NK cells using FACSAriaII SORP (BD Biosciences; FACS Core, Institute of Molecular Biology, Academia Sinica, Taiwan).
CTX was administrated on day-21 post tumor inoculation. The twice CTX-treatment group received the second CTX injection 6 days after the first treatment. Phosphate-buffered saline (PBS) was used as a negative control.
First, the effects of CTX monotherapy, NK monotherapy, or CTX and NK cell combined therapy on EO771 tumor-bearing mice were examined, following the assays described in Example 1 above. The treatment started on day-21 post tumor inoculation. […] FIG. 2. […] FIG. 2.

Experiment [4] deals with EO771 cells. Type of experiment: in vivo, C57BL/6JNarl female mice. The settings on record: tumor-resected mice. The text has this:
Following the assays described in Example 1 above, it was examined in this Example whether CTX monotherapy and CTX/NK cell combined therapy would induce protective immune memory under tumor-resected condition. Mice survived after the treatment of primary EO771 tumor were re-challenged with EO771 cells. […] FIG. 5. […] FIG. 5.

Setting [5] is: tumor-resection model, reference: no treatment (resection only).
Setting [6] is: primary survival rate × survival rate after EO771 re-challenge.
Where [7] appears, read: tumor-bearing model, reference: no treatment.

The structures appear in SMILES notation. Where two headings read alike, the source gives them in different places.

As for `O=P1(N(CCCl)CCCl)NCCCO1` (stereo not shown) [CTX, cyclophosphamide], the survival rate in experiment [1] (tumor resected mice, treatment started two days after resection, FIG. 4) is 86%; in experiment [3] (6 days apart, 125 mg/kg per injection), 11%; in experiment [3] (6 days apart, 150 mg/kg per injection) it was 62%. Also, the “Primary survival rate % (live/total)” value in experiment [1] (tumor-resected mice, survival post treatment in mice inoculated with tumor the first time) is 86 (49/57) %; in experiment [3] (tumor-bearing mice, survival post treatment in mice inoculated with tumor the first time), 62 (46/74) %. Also, the “HR (95% CI), Frailty adjustment” value is 0.083 (0.036, 0.192) in experiment [1] (setting [5]) and 0.02 (0.009, 0.044) in experiment [3] (setting [7]). For the same molecule, the “HR (95% CI), cluster adjustment” value in experiment [1] (setting [5]) is 0.086 (0.037, 0.201); in experiment [3] (setting [7]), 0.024 (0.009, 0.066). The “HR (95% CI), without batch adjustment” value in experiment [1] (setting [5]) is recorded as 0.086 (0.040, 0.186); in experiment [3] (setting [7]), 0.024 (0.012, 0.051). Moreover, the “Survival rate after EO771 re-challenge % (live/total)” value in experiment [2] was 90 (26/29) %. Also, in experiment [2] (FIG. 3), the “survived at least 120 days after the EO771 re-challenge” value stood at 90%. Further, the “Estimated cure rate with immune protection (%)” value in experiment [2] (setting [6]) was 56%; in experiment [4] (setting [6]), 26%. Moreover, the estimated cure rate in experiment [2] (primary × re-challenge survival rates) is given as 56%; in experiment [4] (EO771 primary and re-challenge survival rates), 26%. For the same molecule, the “mice survived for at least 120 days” value in experiment [3] (CTX once, 150 mg/kg per injection, day-21 post tumor inoculation, FIG. 1A) is given as 1 out of 8; in experiment [3] (CTX twice, 6 days apart, 150 mg/kg per injection, from day 21, FIG. 1A) it was 5 out of 8; in experiment [3] (treatment started on day-21 post tumor inoculation, FIG. 2), 62%. For the same molecule, in experiment [4], the “Tumor-free rate after EO771 re-challenge % (live/total)” value is listed as 30 (7/23) %. Also, the “survival after EO771 re-challenge” value in experiment [4] (FIG. 5) stood at 30%.
